Test results taken from patent US11415579B2, “Assay for measuring a rate of reaction between a target and a ligand candidate” (Imperial College Innovations Ltd., priority 2016, dated 2022).

Legend:
Cdk2(T182C) (C177A) = molecular target: T1, Cdk2(T182C) (C177A) (Homo sapiens, UniProt P24941, C177A/T182C); test: Kinetic thiol consumption assay with Cdk2 mutant T182C; format: binding; design: key to Rate enhancement, Cdk2 T182C: rate constant with Cdk2 ÷ rate constant with model thiol (fold); conditions: additional mutation C177A; for Rate constant with Cdk2 T182C: Protein: Cdk2, cysteine position T182C, in h^-1
T1 construct: poly-histidine; made in house; host or cells: E. coli
Summary of the method: (§1)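 Thiol consumption was monitored kinetically using 5 μM Cdk2 (C177A plus one introduced cysteine) in degassed phosphate buffer at pH 8 with TCEP beads. Plates were kept 1 h at room temperature before fluorescence reading, and rate constants came from exponential decay fitting.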

Cdk2[C177A, F80C, K278C] = molecular target: T2, Cdk2[C177A, F80C, K278C] (Homo sapiens, UniProt P24941, C177A/F80C/K278C); test: Kinetic thiol consumption assay with mutant Cdk2 as model thiol; format: binding; design: unit not given here; conditions: 500 μM ligand, 5 μM thiol, phosphate buffer pH 8
T2 construct: poly-histidine; made in house; host or cells: E. coli
Summary of the method: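 First-order rate constants were derived by exponential-decay fitting of DMSO/thiol-normalized fluorescence (380/470 nm) over time at room temperature. Thiol was 5 μM E. coli-expressed His-tagged Cdk2 mutant C177A/F80C/K278C in degassed pH 8 phosphate buffer containing 2% v/v TCEP beads.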

Cdk2(C177A, F80C) = molecular target: T3, Cdk2(C177A, F80C) (Homo sapiens, UniProt P24941, C177A/F80C); test: Kinetic thiol consumption assay with Cdk2 mutant F80C, incl. kobs versus concentration (Kd, k2); format: binding; design: key to Rate enhancement, Cdk2 F80C: Cdk2 rate constant divided by model-thiol rate constant; conditions: additional mutation C177A; for Rate constant with Cdk2 F80C: Protein: Cdk2, cysteine position F80C, in h^-1
T3 construct: poly-histidine; made in house; host or cells: E. coli
Summary of the method: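 His-tagged Cdk2(C177A/F80C) from E. coli or model thiol, 5 μM in degassed phosphate buffer pH 8 with TCEP beads, reacted with acrylamide ligands; fluorescence (ex/em 380/470 nm) normalized to DMSO control and fitted to first-order decay for kobs. Kd and k2 obtained from hyperbolic fit of kobs versus ligand concentration.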

Cdk2(H71C) (C177A) = molecular target: T4, Cdk2(H71C) (C177A) (Homo sapiens, UniProt P24941, C177A/H71C); test: Kinetic thiol consumption assay with Cdk2 mutant H71C; format: binding; design: key to Rate enhancement, Cdk2 H71C: rate constant with Cdk2 ÷ rate constant with model thiol (fold); conditions: additional mutation C177A; for Rate constant with Cdk2 H71C: Protein: Cdk2, cysteine position H71C, in h^-1
T4 construct: poly-histidine; made in house; host or cells: E. coli
Summary of the method: as §1

Cdk2(S276C) (C177A) = molecular target: T5, Cdk2(S276C) (C177A) (Homo sapiens, UniProt P24941, C177A/S276C); test: Kinetic thiol consumption assay with Cdk2 mutant S276C; format: binding; design: key to Rate enhancement, Cdk2 S276C: rate constant with Cdk2 ÷ rate constant with model thiol (fold); conditions: additional mutation C177A; for Rate constant with Cdk2 S276C: Protein: Cdk2, cysteine position S276C, in h^-1
T5 construct: poly-histidine; made in house; host or cells: E. coli
Summary of the method: as §1

Cdk2(S181C) (C177A) = molecular target: T6, Cdk2(S181C) (C177A) (Homo sapiens, UniProt P24941, C177A/S181C); test: Kinetic thiol consumption assay with Cdk2 mutant S181C; format: binding; design: key to Rate enhancement, Cdk2 S181C: rate constant with Cdk2 ÷ rate constant with model thiol (fold); conditions: additional mutation C177A; for Rate constant with Cdk2 S181C: Protein: Cdk2, cysteine position S181C, in h^-1
T6 construct: poly-histidine; made in house; host or cells: E. coli
Summary of the method: as §1

Cdk2(N272C) (C177A) = molecular target: T7, Cdk2(N272C) (C177A) (Homo sapiens, UniProt P24941, C177A/N272C); test: Kinetic thiol consumption assay with Cdk2 mutant N272C; format: binding; design: key to Rate enhancement, Cdk2 N272: rate constant with Cdk2 ÷ rate constant with model thiol (fold); conditions: for Rate enhancement, Cdk2 N272: Cdk2 N272, additional mutation C177A; for Rate constant with Cdk2 N272C: Protein: Cdk2, cysteine position N272C, additional mutation C177A, in h^-1
T7 construct: poly-histidine; made in house; host or cells: E. coli
Summary of the method: as §1

[1] = molecular target: T8, human cyclin-dependent kinase 2 (Cdk2) (Homo sapiens, UniProt P24941); test: Kinetic thiol consumption assay with wild type Cdk2 (C177); format: binding; design: key to Rate enhancement, Cdk2 WT: k(Cdk2) divided by k(model thiol); Rate constant with Cdk2 (k(Cdk2)): unit not given here; conditions: for Rate constant with Cdk2 (k(Cdk2)): 500 μM ligand, 5 μM thiol, phosphate buffer pH 8; for Rate enhancement, Cdk2 WT: no additional mutations; for Rate constant with Cdk2 WT: Protein: Cdk2, cysteine position WT, in h^-1; for k(Cdk2)/k(Cdk2_mut) rate enhancement: model thiol Cdk2[C177A, F80C, K278C]; for k(Cdk2)/k(GSH) rate enhancement: model thiol glutathione
T8 construct: poly-histidine; made in house; host or cells: E. coli
Summary of the method: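 His-tagged human Cdk2 (single surface cysteine C177), expressed in E. coli, or a model thiol at 5 μM in degassed phosphate buffer pH 8 was pre-treated with immobilized TCEP beads (2% v/v) before acrylamide addition. Fluorescence (ex/em 380/470 nm) was read after 1 h at room temperature, normalized to DMSO/thiol-only control and plotted versus time.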

Cdk2(R122C) (C177A) = molecular target: T9, Cdk2(R122C) (C177A) (Homo sapiens, UniProt P24941, C177A/R122C); test: Kinetic thiol consumption assay with Cdk2 mutant R122C; format: binding; design: key to Rate enhancement, Cdk2 R122C: rate constant with Cdk2 ÷ rate constant with model thiol (fold); conditions: additional mutation C177A; for Rate constant with Cdk2 R122C: Protein: Cdk2, cysteine position R122C, in h-1
T9 construct: poly-histidine; made in house; host or cells: E. coli
Summary of the method: as §1

[2] = Kinetic thiol consumption assay with model thiol glutathione; format: physicochemical; design: Rate constant with glutathione (k(GSH)): unit not given here; conditions: for Rate constant with glutathione (k(GSH)): 500 μM ligand, 5 μM thiol, phosphate buffer pH 8; for Rate constant with Glutathione: Protein: Glutathione, cysteine position NA, in h-1
Summary of the method: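 GSH 5 μM, degassed phosphate buffer pH 8, TCEP beads 2% v/v; acrylamide added; RT, 1 h; fluorescence ex/em 380/470 nm; normalized to DMSO/thiol control; k from first-order exponential decay fit.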

Rate enhancement, Cdk2 T182C (Cdk2(T182C) (C177A))	Rate constant with Cdk2 T182C (Cdk2(T182C) (C177A))	Rate constant with Cdk2[C177A, F80C, K278C] (k(Cdk2_mut)) (Cdk2[C177A, F80C, K278C])	Rate enhancement, Cdk2 F80C (Cdk2(C177A, F80C))	Rate constant with Cdk2 F80C (Cdk2(C177A, F80C))	Rate enhancement, Cdk2 H71C (Cdk2(H71C) (C177A))	Rate enhancement, Cdk2 S276C (Cdk2(S276C) (C177A))	Rate constant with Cdk2 S276C (Cdk2(S276C) (C177A))	Rate enhancement, Cdk2 S181C (Cdk2(S181C) (C177A))	Rate constant with Cdk2 S181C (Cdk2(S181C) (C177A))	Rate enhancement, Cdk2 N272 (Cdk2(N272C) (C177A))	Rate constant with Cdk2 N272C (Cdk2(N272C) (C177A))	Rate constant with Cdk2 (k(Cdk2)) [1]	Rate enhancement, Cdk2 WT [1]	Rate constant with Cdk2 WT [1]	k(Cdk2)/k(Cdk2_mut) rate enhancement [1]	k(Cdk2)/k(GSH) rate enhancement [1]	Rate enhancement, Cdk2 R122C (Cdk2(R122C) (C177A))	Structure (SMILES)	Rate constant with glutathione (k(GSH)) [2]	Rate constant with Glutathione [2]	also measured
0.1829	0.001408	0.00073	0.2794	0.002151	0	2.9904E−12	2.302E−14	0.9819	0.007559	0.09396	0.0007233	0.00239	0.4757	0.003662	3.262	0.4934	0	C=CC(=O)NC(Cc1ccccc1)C(O)CF (stereo not drawn) [EL-1164]	0.00485	0.007698	
0.2903	0.002365	0.00154	0		0	0.1116	0.0009087	0.1134	0.0009239	0		0.00269	0.3307	0.002694	1.749	0.4838	0.2302	C=CC(=O)NC1(c2noc(C3CC3)n2)CCCC1 [CA-044]	0.00557	0.008146	Rate constant with Cdk2 R122C (Cdk2(R122C) (C177A)): 0.001875
5.286	0.04531	0.00922	1.94	0.01663	0.5644	0.9188	0.007876	1.588	0.01361	0.3872	0.003319	0.00827	0.9701	0.008316	0.8966	0.9595	0.7255	C=CC(=O)Nc1ccc2nc(C)[nH]c2c1 [EL-1109]	0.00862	0.008572	Rate constant with Cdk2 H71C (Cdk2(H71C) (C177A)): 0.004838; Rate constant with Cdk2 R122C (Cdk2(R122C) (C177A)): 0.006219
3.834	0.02276	0.0058	0.816	0.004844	0.6643	2.027	0.01203	0.9565	0.005678	0.326	0.001935	0.00612	1.186	0.007039	1.055	1.009	0.7476	C=CC(=O)N1CCC(c2nc3ccccc3[nH]2)CC1 [EL-1152]	0.00606	0.005936	Rate constant with Cdk2 H71C (Cdk2(H71C) (C177A)): 0.003943; Rate constant with Cdk2 R122C (Cdk2(R122C) (C177A)): 0.004438
2.645	0.05001	0.00791	0.8022	0.01517	0.2331	0.779	0.01473	0.6029	0.0114	0.5442	0.01029	0.01116	0.7118	0.01346	1.41	0.8182	0.2023	C=CC(=O)N(C)C1CC(OCC)C12CCC2 (stereo not drawn) [CA-048]	0.01364	0.01891	Rate constant with Cdk2 H71C (Cdk2(H71C) (C177A)): 0.004408; Rate constant with Cdk2 R122C (Cdk2(R122C) (C177A)): 0.003826
1.447	0.01424	0.00407	0.1887	0.001856	0.1566	0.8141	0.008009	0		0.5898	0.005802	0.00152	0.1544	0.001519	0.3735	0.2854	0.3499	C=CC(=O)NC1C2C3CCC(C3)C12 (stereo not drawn) [CA-097]	0.00533	0.009838	Rate constant with Cdk2 H71C (Cdk2(H71C) (C177A)): 0.001541; Rate constant with Cdk2 R122C (Cdk2(R122C) (C177A)): 0.003442
1.338	0.01087	0.00407	0.7204	0.005854	0	0.2024	0.001645	0.6713	0.005455	0.1121	0.0009109	0.00303	0.6141	0.00499	0.7455	0.3806	0.3699	C=CC(=O)N1CCCCCC1c1ccc(N(C)C)cc1 (stereo not drawn) [EL-1140]	0.00797	0.008126	Rate constant with Cdk2 R122C (Cdk2(R122C) (C177A)): 0.003006
